Results: ChEMBL document CHEMBL3856241, “Discovery of novel 5-hydroxy-4-pyridone-3-carboxy acids as potent inhibitors of influenza Cap-dependent endonuclease” (Bioorg Med Chem Lett, 2016)

Experiment: Antiviral activity against Influenza A virus A/WSN/33(H1N1) infected in MDCK cells assessed as inhibition of virus-induced cytopathic effect after 3 days by WST-8 assay
Type: functional, cell-based, Influenza A virus (A/WSN/1933(H1N1))
Conditions: 72 h

With `O=C(O)c1cn(CC2(n3ccc4cccnc43)CCCC2)cc(O)c1=O` as the molecule, how does the EC50 read?
The EC50 was 201 nM.

Experiment: Inhibition of Influenza A virus A/WSN/33(H1N1) cap-dependent endonuclease using 3'-BHQ2 labeled 30-mer RNA as substrate after 60 mins by fluorescence assay
Parameters: species or system Influenza A virus (A/WSN/1933(H1N1))
Conditions: not given

For `O=C(O)c1cn(Cc2ccccc2)cc(O)c1=O`, which IC50 is on record?
The IC50 was 2100 nM.

For `O=C(O)c1cn(CC2(c3ccccc3)CCCC2)cc(O)c1=O`, which IC50 is on record?
Its IC50 is 60.7 nM.

With `O=C(O)c1cn(Cc2ccc(F)cc2)cc(O)c1=O` as the molecule, how does the IC50 read?
The IC50 was 3230 nM.

With `O=C(O)c1cn(CCCc2ccccc2)cc(O)c1=O` as the molecule, how does the IC50 read?
Its IC50 is 1420 nM.

For `O=C(O)c1cn(CCc2cccc(Cl)c2)cc(O)c1=O`, which IC50 is on record?
The IC50 was 430 nM.

Which IC50 does the source give for `O=C(O)c1cn(CCCCc2ccccc2)cc(O)c1=O` here?
Its IC50 is 2810 nM.

For `O=C(O)c1cn(CCc2ccc(O)cc2)cc(O)c1=O`, which IC50 is on record?
The IC50 was 2490 nM.

Which IC50 does the source give for `Cn1cc(C2(Cn3cc(O)c(=O)c(C(=O)O)c3)CCCC2)c2ncccc21` here?
Its IC50 is 46.3 nM.

Which IC50 does the source give for `Cn1cc(C2(Cn3cc(O)c(=O)c(C(=O)O)c3)CCCC2)c2ccccc21` here?
Its IC50 is 16.1 nM.

With `O=C(O)c1cn(CC2(c3ccc4cccnc4c3)CCCC2)cc(O)c1=O` as the molecule, how does the IC50 read?
Its IC50 is 16.4 nM.

With `O=C(O)c1cn(CCc2ccccc2Cl)cc(O)c1=O` as the molecule, how does the IC50 read?
The IC50 was 242 nM.

For `O=C(O)c1cn(CC2(c3cccc(Cl)c3)CCCC2)cc(O)c1=O`, which IC50 is on record?
The IC50 was 9.2 nM.

Which IC50 does the source give for `O=C(O)c1cn(CC2(c3ccnc(-n4cccn4)c3)CCCC2)cc(O)c1=O` here?
The IC50 was 17.9 nM.

For `O=C(O)c1cn(Cc2ccc(F)cc2)ccc1=O`, which IC50 is on record?
The IC50 was > 500000 nM.

With `O=C(O)c1cn(CC2(c3ccc(Cl)cc3)CCCC2)cc(O)c1=O` as the molecule, how does the IC50 read?
The IC50 was 15.6 nM.

With `O=C(O)c1cn(CC2(n3ccc4cccnc43)CCCC2)cc(O)c1=O` as the molecule, how does the IC50 read?
Its IC50 is 5.12 nM.

For `O=C(O)c1cn(CC2(c3ccccc3)CCC2)cc(O)c1=O`, which IC50 is on record?
The IC50 was 105 nM.

Which IC50 does the source give for `O=C(O)c1cn(CC2(c3ccc4c(c3)OCO4)CCCC2)cc(O)c1=O` here?
Its IC50 is 16.3 nM.

For `O=C(O)c1cn(CC2(c3ccccc3)CCCCC2)cc(O)c1=O`, which IC50 is on record?
The IC50 was 61.8 nM.

For `O=C(O)c1cn(CC2(c3ccccc3Cl)CCCC2)cc(O)c1=O`, which IC50 is on record?
The IC50 was 36.1 nM.

Which IC50 does the source give for `O=C(O)c1cn(CCc2ccccc2)cc(O)c1=O` here?
The IC50 was 714 nM.

Which IC50 does the source give for `O=C(O)c1cn(CC2(c3ccc4ccccc4c3)CCCC2)cc(O)c1=O` here?
The IC50 was 28.4 nM.

Which IC50 does the source give for `O=C(O)c1cn(-c2ccc(F)cc2)cc(O)c1=O` here?
The IC50 was 6510 nM.

With `O=C(O)c1cn(CCc2ccc(Cl)cc2)cc(O)c1=O` as the molecule, how does the IC50 read?
The IC50 was 824 nM.

For `O=c1ccn(Cc2ccc(F)cc2)cc1O`, which IC50 is on record?
The IC50 was > 500000 nM.

With `O=C(O)c1cn(CC2(c3cccc(Oc4ccccc4)c3)CCCC2)cc(O)c1=O` as the molecule, how does the IC50 read?
The IC50 was 43 nM.

Which IC50 does the source give for `O=C(O)c1cn(CCc2ccc(-c3ccc(F)cc3)cc2)cc(O)c1=O` here?
The IC50 was 3730 nM.

For `O=C(O)c1cn(CC2(c3ccccc3)CC2)cc(O)c1=O`, which IC50 is on record?
Its IC50 is 402 nM.
